{"source": "patent US20070026431A1", "about": "“Modulation of MAPK-mediated phosphorylation and/or FBXW8-mediated ubiquitinylation of cyclin D1 in modulation of cellular proliferation” (priority 2005, published 2007)", "key": {"[1]": {"test_system": "cyclin D1", "test": "Immunofluorescence, subcellular localization of cyclin D1 in HCT 116 cells", "assay_type": "cell-based, human", "settings": "5 μM BIO 24 hours, BrdU pulse", "method": "Panels A-C: Immunofluorescence analysis. Nuclei were visualized with Hoechst dye. […] Panel A: Subcellular localization of cyclin D1. […] Panel B: Subcellular localization of the E3 ligase. […] Panel D: Immunoprecipitated-immunoblotting analysis. Panel E: Cell cycle distributions.\nImmunofluorescence Analysis. Cultured cells on multiwell chamber slides (Nalge Nunc) were fixed with 4% paraformaldehyde in PBS and permeabilized in PBS containing 0.1% Triton X-100. Primary antibodies were diluted 1:100 in PBS containing 5% normal goat serum and applied for 2 hours. Proteins were detected either with mouse monoclonal antibodies or rabbit polyclonal antibodies followed by fluorescent substrate conjugated anti-mouse or anti-rabbit secondary antibody (Molecular Probes). For example, Cyclin D1 was detected either with mouse monoclonal cyclin D1 antibody (A-12, Santa Cruz) followed by fluorescent substrate conjugated anti-mouse or anti-rabbit secondary antibody (Molecular Probes). Nuclei were visualized using Hoechst 33258 (Molecular Probes). Fluorescence image was detected using LEICADMRD microscope (Leica).\nExponentially growing HCT 116 colon cancer cells were treated with the GSK3 inhibitor BIO for 24 hours. […] The subcellular distribution of cyclin D1 was visualized under the microscope (FIG. 12, Panel A). […]"}, "[2]": {"test_system": "cyclin D1 protein", "test": "Pulse-chase analysis of cyclin D1 protein in HCT 116 cells", "assay_type": "cell-based, human", "settings": "HCT 116; 5 μM BIO 24 hours", "method": "FIG. 11 illustrates that ERK/MAPK is identified as the major kinase that is responsible for the stability of cyclin D1 protein. Panels A-F: Pulse-chase analysis of cyclin D1 protein in HCT 116 cells after exposure to the MEK inhibitor U0126 (A-C) or the GSK3 inhibitor BIO (D-F). Exponentially growing HCT 116 cells were treated with either DMSO or 10 μM of U0126 (A-C) for 30 minutes, or DMSO or 5 μM of BIO (D-F) for 24 hours. Panels A and D: Cells were pulse-labeled with ^35S-methionine for 1 hour. Subsequently these cells were chased with cold methionine for the indicated times, and then lysed respectively. Cyclin D1 was immunoprecipitated and then analyzed with SDS-PAGE. Autoradiography was performed. Levels of metabolically labeled-cyclin D1 were estimated by quantitative scanning using the Quantity One (Bio-Rad) software and blotted on the graph to determine the half-life of cyclin D1. […]\nFIG. 18 illustrates that knockdown of FBXW8, or its partner CUL1 or CUL7 expression through siRNA stabilizes cyclin D1 expression in HCT 116 colon cancer cells. […] Cyclin D1 was immunoprecipitated and then analyzed with SDS-PAGE. Levels of metabolically labeled-cyclin D1 were estimated by quantitative scanning using the Quantity One software (Bio-Rad) and blotted on the graph to determine the half-life of cyclin D1 (D).\nPulse-Chase Analysis. […] Cyclin D1 was immunoprecipitated and then analyzed with SDS-PAGE. […]"}}}
{"smiles": "O=C1Nc2cc(Br)ccc2/C1=C1/Nc2ccccc2/C1=N\\O", "note": "[BIO]", "values": [{"measurement": "subcellular localization of cyclin D1", "setting": "[1]", "result": "no significant difference"}, {"measurement": "half-life of cyclin D1 protein", "setting": "[2]", "result": "no significant difference"}]}
